{"source": "patent US7244431B2", "about": "“Allergy vaccines and their preparation” (priority 2000, dated 2007)", "key": {"[1]": {"tested_on": "birch pollen allergic patients", "assay": "Skin prick testing of allergic patients", "assay_type": "in vivo, human", "settings": "100 μg/ml", "description": "SPTs were performed on the individuals forearms as described ([…]. et al. (1997) J. Clin Invest. 99, 1673-168; Dreborg S: (1989) J. Am. Acad. DerMatol. 21, 820-821). […] In addition standardized skin prick solutions (birch pollen extract and histamine) (Allergopharma, Reinbek, Germany) were tested. Reactions were recorded 20 minutes after SPT by photography and by transferring the ballpoint pen-surrounded wheal area with a scotch tape to paper."}, "[2]": {"tested_on": "IgE antibodies in sera from birch pollen allergic patients", "assay": "ELISA detection of peptide- and rBet v 1-specific IgE antibodies", "assay_type": "binding, human", "description": "Birch pollen allergic patients suffering from allergic rhinoconjunctivitis and/or asthma to birch pollen and related allergens were selected according to case history indicative for seasonal birch pollinosis and characterized by skin prick testing with birch pollen extract and serological CAP RAST (Pharmacia Diagnostics, Uppsala, Sweden) testing. Total IgE levels in the sera were determined by CAP RIST measurements (Pharmacia). […] Sera from 60 birch pollen allergic patients and a non-atopic individual were used for IgE competition studies. The birch pollen allergic patients group consisted of 25 males and 35 females with a mean age of 37 years (ranging from 19-60 years) (Table 2).\nSubsequently, plates were incubated with 1:3 diluted sera from 60 birch pollen allergic patients and from a non-atopic individual overnight at 4° C. Bound IgE antibodies were detected with a 1:1000 diluted alkaline-phosphatase-coupled mouse monoclonal anti-human IgE antibody (Pharmingen, San Diego, Calif.)."}}}
{"sequence": "CVDHTNFKYNYSVIEGGPIGDTLEKISNEIK [Peptide P6, Bet v 1-derived synthetic peptide, position aa 75-104, one cysteine added]", "values": [{"measurement": "mean wheal diameter", "setting": "[1]; individual 1", "result": 0, "unit": "mm"}, {"measurement": "mean wheal diameter", "setting": "[1]; individual 2", "result": 0, "unit": "mm"}, {"measurement": "mean wheal diameter", "setting": "[1]; individual 3", "result": 0, "unit": "mm"}, {"measurement": "mean wheal diameter", "setting": "[1]; individual 4", "result": 0, "unit": "mm"}, {"measurement": "mean wheal diameter", "setting": "[1]; individual 5", "result": 0, "unit": "mm"}, {"measurement": "mean wheal diameter", "setting": "[1]; individual 6 (allergic, without birch pollen allergy)", "result": 0, "unit": "mm"}, {"measurement": "IgE (OD)", "setting": "[2]; serum of NHS, non-allergic control individual", "result": "— (Dashes indicate reactivities below the cut-off level (OD=0.050))"}, {"measurement": "IgE (OD)", "setting": "[2]; serum of patient 1", "result": "— (Dashes indicate reactivities below the cut-off level (OD=0.050))"}, {"measurement": "IgE (OD)", "setting": "[2]; serum of patient 2", "result": "— (Dashes indicate reactivities below the cut-off level (OD=0.050))"}, {"measurement": "IgE (OD)", "setting": "[2]; serum of patient 3", "result": "— (Dashes indicate reactivities below the cut-off level (OD=0.050))"}, {"measurement": "IgE (OD)", "setting": "[2]; serum of patient 4", "result": "— (Dashes indicate reactivities below the cut-off level (OD=0.050))"}, {"measurement": "IgE (OD)", "setting": "[2]; serum of patient 5", "result": "— (Dashes indicate reactivities below the cut-off level (OD=0.050))"}, {"measurement": "IgE (OD)", "setting": "[2]; serum of patient 6", "result": "— (Dashes indicate reactivities below the cut-off level (OD=0.050))"}, {"measurement": "IgE (OD)", "setting": "[2]; serum of patient 7", "result": "— (Dashes indicate reactivities below the cut-off level (OD=0.050))"}, {"measurement": "IgE (OD)", "setting": "[2]; serum of patient 8", "result": "— (Dashes indicate reactivities below the cut-off level (OD=0.050))"}, {"measurement": "IgE (OD)", "setting": "[2]; serum of patient 9", "result": "— (Dashes indicate reactivities below the cut-off level (OD=0.050))"}, {"measurement": "IgE (OD)", "setting": "[2]; serum of patient 10", "result": "— (Dashes indicate reactivities below the cut-off level (OD=0.050))"}, {"measurement": "IgE (OD)", "setting": "[2]; serum of patient 11", "result": "— (Dashes indicate reactivities below the cut-off level (OD=0.050))"}, {"measurement": "IgE (OD)", "setting": "[2]; serum of patient 12", "result": "— (Dashes indicate reactivities below the cut-off level (OD=0.050))"}, {"measurement": "IgE (OD)", "setting": "[2]; serum of patient 13", "result": "— (Dashes indicate reactivities below the cut-off level (OD=0.050))"}, {"measurement": "IgE (OD)", "setting": "[2]; serum of patient 14", "result": "— (Dashes indicate reactivities below the cut-off level (OD=0.050))"}, {"measurement": "IgE (OD)", "setting": "[2]; serum of patient 15", "result": "— (Dashes indicate reactivities below the cut-off level (OD=0.050))"}, {"measurement": "IgE (OD)", "setting": "[2]; serum of patient 16", "result": "— (Dashes indicate reactivities below the cut-off level (OD=0.050))"}, {"measurement": "IgE (OD)", "setting": "[2]; serum of patient 17", "result": "— (Dashes indicate reactivities below the cut-off level (OD=0.050))"}, {"measurement": "IgE (OD)", "setting": "[2]; serum of patient 18", "result": "— (Dashes indicate reactivities below the cut-off level (OD=0.050))"}, {"measurement": "IgE (OD)", "setting": "[2]; serum of patient 19", "result": "— (Dashes indicate reactivities below the cut-off level (OD=0.050))"}, {"measurement": "IgE (OD)", "setting": "[2]; serum of patient 20", "result": "— (Dashes indicate reactivities below the cut-off level (OD=0.050))"}, {"measurement": "IgE (OD)", "setting": "[2]; serum of patient 21", "result": "— (Dashes indicate reactivities below the cut-off level (OD=0.050))"}, {"measurement": "IgE (OD)", "setting": "[2]; serum of patient 22", "result": "— (Dashes indicate reactivities below the cut-off level (OD=0.050))"}, {"measurement": "IgE (OD)", "setting": "[2]; serum of patient 23", "result": "— (Dashes indicate reactivities below the cut-off level (OD=0.050))"}, {"measurement": "IgE (OD)", "setting": "[2]; serum of patient 24", "result": "— (Dashes indicate reactivities below the cut-off level (OD=0.050))"}, {"measurement": "IgE (OD)", "setting": "[2]; serum of patient 25", "result": "— (Dashes indicate reactivities below the cut-off level (OD=0.050))"}, {"measurement": "IgE (OD)", "setting": "[2]; serum of patient 26", "result": "— (Dashes indicate reactivities below the cut-off level (OD=0.050))"}, {"measurement": "IgE (OD)", "setting": "[2]; serum of patient 27", "result": "— (Dashes indicate reactivities below the cut-off level (OD=0.050))"}, {"measurement": "IgE (OD)", "setting": "[2]; serum of patient 28", "result": "— (Dashes indicate reactivities below the cut-off level (OD=0.050))"}, {"measurement": "IgE (OD)", "setting": "[2]; serum of patient 29", "result": "— (Dashes indicate reactivities below the cut-off level (OD=0.050))"}, {"measurement": "IgE (OD)", "setting": "[2]; serum of patient 30", "result": "— (Dashes indicate reactivities below the cut-off level (OD=0.050))"}, {"measurement": "IgE (OD)", "setting": "[2]; serum of patient 31", "result": "— (Dashes indicate reactivities below the cut-off level (OD=0.050))"}, {"measurement": "IgE (OD)", "setting": "[2]; serum of patient 32", "result": "— (Dashes indicate reactivities below the cut-off level (OD=0.050))"}, {"measurement": "IgE (OD)", "setting": "[2]; serum of patient 33", "result": "— (Dashes indicate reactivities below the cut-off level (OD=0.050))"}, {"measurement": "IgE (OD)", "setting": "[2]; serum of patient 34", "result": "— (Dashes indicate reactivities below the cut-off level (OD=0.050))"}, {"measurement": "IgE (OD)", "setting": "[2]; serum of patient 35", "result": "— (Dashes indicate reactivities below the cut-off level (OD=0.050))"}, {"measurement": "IgE (OD)", "setting": "[2]; serum of patient 36", "result": "— (Dashes indicate reactivities below the cut-off level (OD=0.050))"}, {"measurement": "IgE (OD)", "setting": "[2]; serum of patient 37", "result": "— (Dashes indicate reactivities below the cut-off level (OD=0.050))"}, {"measurement": "IgE (OD)", "setting": "[2]; serum of patient 38", "result": "— (Dashes indicate reactivities below the cut-off level (OD=0.050))"}, {"measurement": "IgE (OD)", "setting": "[2]; serum of patient 39", "result": "— (Dashes indicate reactivities below the cut-off level (OD=0.050))"}, {"measurement": "IgE (OD)", "setting": "[2]; serum of patient 40", "result": "— (Dashes indicate reactivities below the cut-off level (OD=0.050))"}, {"measurement": "IgE (OD)", "setting": "[2]; serum of patient 41", "result": "— (Dashes indicate reactivities below the cut-off level (OD=0.050))"}, {"measurement": "IgE (OD)", "setting": "[2]; serum of patient 42", "result": "— (Dashes indicate reactivities below the cut-off level (OD=0.050))"}, {"measurement": "IgE (OD)", "setting": "[2]; serum of patient 43", "result": "— (Dashes indicate reactivities below the cut-off level (OD=0.050))"}, {"measurement": "IgE (OD)", "setting": "[2]; serum of patient 44", "result": "— (Dashes indicate reactivities below the cut-off level (OD=0.050))"}, {"measurement": "IgE (OD)", "setting": "[2]; serum of patient 45", "result": "— (Dashes indicate reactivities below the cut-off level (OD=0.050))"}, {"measurement": "IgE (OD)", "setting": "[2]; serum of patient 46", "result": "— (Dashes indicate reactivities below the cut-off level (OD=0.050))"}, {"measurement": "IgE (OD)", "setting": "[2]; serum of patient 47", "result": "— (Dashes indicate reactivities below the cut-off level (OD=0.050))"}, {"measurement": "IgE (OD)", "setting": "[2]; serum of patient 48", "result": "— (Dashes indicate reactivities below the cut-off level (OD=0.050))"}, {"measurement": "IgE (OD)", "setting": "[2]; serum of patient 49", "result": "— (Dashes indicate reactivities below the cut-off level (OD=0.050))"}, {"measurement": "IgE (OD)", "setting": "[2]; serum of patient 50", "result": "— (Dashes indicate reactivities below the cut-off level (OD=0.050))"}, {"measurement": "IgE (OD)", "setting": "[2]; serum of patient 51", "result": "— (Dashes indicate reactivities below the cut-off level (OD=0.050))"}, {"measurement": "IgE (OD)", "setting": "[2]; serum of patient 52", "result": "— (Dashes indicate reactivities below the cut-off level (OD=0.050))"}, {"measurement": "IgE (OD)", "setting": "[2]; serum of patient 53", "result": "— (Dashes indicate reactivities below the cut-off level (OD=0.050))"}, {"measurement": "IgE (OD)", "setting": "[2]; serum of patient 54", "result": "— (Dashes indicate reactivities below the cut-off level (OD=0.050))"}, {"measurement": "IgE (OD)", "setting": "[2]; serum of patient 55", "result": "— (Dashes indicate reactivities below the cut-off level (OD=0.050))"}, {"measurement": "IgE (OD)", "setting": "[2]; serum of patient 56", "result": "— (Dashes indicate reactivities below the cut-off level (OD=0.050))"}, {"measurement": "IgE (OD)", "setting": "[2]; serum of patient 57", "result": "— (Dashes indicate reactivities below the cut-off level (OD=0.050))"}, {"measurement": "IgE (OD)", "setting": "[2]; serum of patient 58", "result": "— (Dashes indicate reactivities below the cut-off level (OD=0.050))"}, {"measurement": "IgE (OD)", "setting": "[2]; serum of patient 59", "result": "— (Dashes indicate reactivities below the cut-off level (OD=0.050))"}, {"measurement": "IgE (OD)", "setting": "[2]; serum of patient 60", "result": "— (Dashes indicate reactivities below the cut-off level (OD=0.050))"}]}
